Results published in PMC11876601 (Molecular Systems Biology, 2025).
Read-outs that look alike come from different tables or passages of the source.

Legend:
SIK2 = settings: cited from earlier work
CAMK2G = settings: cited from earlier work
PRKD3 = settings: cited from earlier work
AURKA = settings: cited from earlier work
STK10 = settings: cited from earlier work
MAPK10 = settings: cited from earlier work
LATS1 = settings: cited from earlier work
Suit2-07 cells = experiment: Cell proliferation assay, GEM + ATR inhibitor (Incucyte confluence, 72 h); assay type: cell-based, human; settings: Suit2-07; for EC50: Homo sapiens, 72 h; for Response: R1; for Curve bottom / Curve top: plateau of fitted curve, ratio drug/vehicle confluence;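 as to all read-outs here: Suit2-07 cells grown in 96-well plates at 37 °C, 5% CO2, raw 72 h confluence taken without normalizing to starting confluence, each experiment done in triplicate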
[1] = 4 cell line mix lysate, Kinobeads y, ref Klaeger et al. (2017)
[2] = SIK2, 5 cell line mix lysate, Kinobeads ε, ref Reinecke et al. (2023)
[3] = 5 cell line mix lysate, Kinobeads ε, ref Reinecke et al. (2023), read-out: KDapp
[4] = 5 cell line mix lysate, Kinobeads ε, ref Reinecke et al. (2023)
[5] = PRKD3, 5 cell line mix lysate, Kinobeads ε, ref Reinecke et al. (2023)
[6] = STK10, 5 cell line mix lysate, Kinobeads ε, ref Reinecke et al. (2023)
[7] = MAPK10, 5 cell line mix lysate, Kinobeads ε, ref Reinecke et al. (2023)
[8] = LATS1, 5 cell line mix lysate, Kinobeads ε, ref Reinecke et al. (2023)
[9] = experiment ATRi (ATR inhibitor alone)

For `C[C@]12O[C@H](C[C@]1(O)CO)n1c3ccccc3c3c4c(c5c6ccccc6n2c5c31)CNC4=O` [Lestaurtinib], the EC50 (SIK2; SIK2, 4 cell line mix lysate, Kinobeads y, ref Klaeger et al. (2017)) is listed as […], the EC50 (CAMK2G; [1]) is listed as […] and the EC50 (PRKD3; PRKD3, 4 cell line mix lysate, Kinobeads y, ref Klaeger et al. (2017)) is listed as […]. The EC50 (AURKA; [1]) was […], the EC50 (STK10; STK10, 4 cell line mix lysate, Kinobeads y, ref Klaeger et al. (2017)) was […] and the EC50 (MAPK10; MAPK10, 4 cell line mix lysate, Kinobeads y, ref Klaeger et al. (2017)) was 0.0332 µM. The EC50 (LATS1; LATS1, 4 cell line mix lysate, Kinobeads y, ref Klaeger et al. (2017)) was […].
For `COc1cc(N2CCC(N3CCN(C)CC3)CC2)ccc1Nc1ncc(Cl)c(Nc2ccccc2P(C)(C)=O)n1` [Brigatinib], the EC50 (SIK2; [2]) is listed as 0.0465 µM, the pKDapp (SIK2; [2]) is listed as 7.62 and the Kd (SIK2; SIK2, 5 cell line mix lysate, Kinobeads ε, ref Reinecke et al. (2023), read-out: KDapp) is listed as 0.0241 µM. For the same compound, the Kd (CAMK2G; [3]) was 0.0932 µM, the EC50 (CAMK2G; [4]) was 0.429 µM and the pKDapp (CAMK2G; [4]) was 7.03. The EC50 (PRKD3; [5]) was 0.259 µM, the pKDapp (PRKD3; [5]) was 6.72 and the Kd (PRKD3; PRKD3, 5 cell line mix lysate, Kinobeads ε, ref Reinecke et al. (2023), read-out: KDapp) was 0.192 µM. The Kd (AURKA; [3]) was 0.224 µM, the EC50 (AURKA; [4]) was 0.634 µM and the pKDapp (AURKA; [4]) was 6.65. The EC50 (STK10; [6]) was 0.31 µM, the pKDapp (STK10; [6]) was 6.55 and the Kd (STK10; STK10, 5 cell line mix lysate, Kinobeads ε, ref Reinecke et al. (2023), read-out: KDapp) was 0.283 µM. For the same compound, the EC50 (MAPK10; [7]) was 0.789 µM, the pKDapp (MAPK10; [7]) was 6.18 and the Kd (MAPK10; MAPK10, 5 cell line mix lysate, Kinobeads ε, ref Reinecke et al. (2023), read-out: KDapp) was 0.663 µM. The EC50 (LATS1; [8]) was 3.55 µM, the pKDapp (LATS1; [8]) was 5.55 and the Kd (LATS1; LATS1, 5 cell line mix lysate, Kinobeads ε, ref Reinecke et al. (2023), read-out: KDapp) was 2.79 µM.
Work on `CNCc1ccc(-c2cc(-c3nc(-c4ccc(S(=O)(=O)C(C)C)cc4)cnc3N)on2)cc1` [Berzosertib] yielded an EC50 (Suit2-07 cells; experiment ATRi (ATR inhibitor alone), -log10 of EC50 [M], read-out: pEC50 (converted)) of 8.32e-07 M, an EC50 (Suit2-07 cells; experiment ATRi (ATR inhibitor alone), mean (one replicate), read-out: EC50 mean) of 8.26e-07 M and an EC50 (Suit2-07 cells; experiment ATRi (ATR inhibitor alone), replicate R1, read-out: EC50) of 8.26e-07 M. It also gave a Response (Suit2-07 cells; GEM+ATRi_dose1, GEM 0 nM + ATRi 10 nM, in % (unit assumed)) of 98.77, a Response (Suit2-07 cells; GEM+ATRi_dose1, GEM 1 nM + ATRi 10 nM, in % (unit assumed)) of 98.71 and a Response (Suit2-07 cells; GEM+ATRi_dose1, GEM 3 nM + ATRi 10 nM, in % (unit assumed)) of 96.04. The Response (Suit2-07 cells; GEM+ATRi_dose1, GEM 10 nM + ATRi 10 nM, in % (unit assumed)) was 36.30, the Response (Suit2-07 cells; GEM+ATRi_dose1, GEM 30 nM + ATRi 10 nM, in % (unit assumed)) was 15.43 and the Response (Suit2-07 cells; GEM+ATRi_dose1, GEM 100 nM + ATRi 10 nM, in % (unit assumed)) was 14.13. It also gave a Response (Suit2-07 cells; GEM+ATRi_dose1, GEM 300 nM + ATRi 10 nM, in % (unit assumed)) of 12.00, a Response (Suit2-07 cells; GEM+ATRi_dose1, GEM 1000 nM + ATRi 10 nM, in % (unit assumed)) of 12.45 and a Response (Suit2-07 cells; GEM+ATRi_dose1, GEM 3000 nM + ATRi 10 nM, in % (unit assumed)) of 11.51. It also gave a Response (Suit2-07 cells; GEM+ATRi_dose2, GEM 0 nM + ATRi 3 nM, in % (unit assumed)) of 99.37, a Response (Suit2-07 cells; GEM+ATRi_dose2, GEM 1 nM + ATRi 3 nM, in % (unit assumed)) of 98.07 and a Response (Suit2-07 cells; GEM+ATRi_dose2, GEM 3 nM + ATRi 3 nM, in % (unit assumed)) of 44.64. The Response (Suit2-07 cells; GEM+ATRi_dose2, GEM 10 nM + ATRi 3 nM, in % (unit assumed)) was 20.67, the Response (Suit2-07 cells; GEM+ATRi_dose2, GEM 30 nM + ATRi 3 nM, in % (unit assumed)) was 15.78 and the Response (Suit2-07 cells; GEM+ATRi_dose2, GEM 100 nM + ATRi 3 nM, in % (unit assumed)) was 12.95. It also gave a Response (Suit2-07 cells; GEM+ATRi_dose2, GEM 300 nM + ATRi 3 nM, in % (unit assumed)) of 13.27, a Response (Suit2-07 cells; GEM+ATRi_dose2, GEM 1000 nM + ATRi 3 nM, in % (unit assumed)) of 13.27 and a Response (Suit2-07 cells; GEM+ATRi_dose2, GEM 3000 nM + ATRi 3 nM, in % (unit assumed)) of 11.05. The Response (Suit2-07 cells; GEM+ATRi_dose3, GEM 0 nM + ATRi 30 nM, in % (unit assumed)) was 92.60, the Response (Suit2-07 cells; GEM+ATRi_dose3, GEM 1 nM + ATRi 30 nM, in % (unit assumed)) was 79.33 and the Response (Suit2-07 cells; GEM+ATRi_dose3, GEM 3 nM + ATRi 30 nM, in % (unit assumed)) was 33.65. The Response (Suit2-07 cells; GEM+ATRi_dose3, GEM 10 nM + ATRi 30 nM, in % (unit assumed)) was 15.80, the Response (Suit2-07 cells; GEM+ATRi_dose3, GEM 30 nM + ATRi 30 nM) was 15.08 and the Response (Suit2-07 cells; GEM+ATRi_dose3, GEM 100 nM + ATRi 30 nM, in % (unit assumed)) was 13.63. It also gave a Response (Suit2-07 cells; GEM+ATRi_dose3, GEM 300 nM + ATRi 30 nM, in % (unit assumed)) of 12.25, a Response (Suit2-07 cells; GEM+ATRi_dose3, GEM 1000 nM + ATRi 30 nM, in % (unit assumed)) of 9.74 and a Response (Suit2-07 cells; GEM+ATRi_dose3, GEM 3000 nM + ATRi 30 nM, in % (unit assumed)) of 10.10. For the same compound, the Curve bottom (Suit2-07 cells; [9]) was 1.01, the Curve top (Suit2-07 cells; [9]) was 0.09 and the Response (Suit2-07 cells; experiment ATRi, ATRi 3 nM, GEM 0 nM, in % (unit assumed)) was 98.72. It also gave a Response (Suit2-07 cells; experiment ATRi, ATRi 10 nM, GEM 0 nM, in % (unit assumed)) of 98.54, a Response (Suit2-07 cells; experiment ATRi, ATRi 30 nM, GEM 0 nM, in % (unit assumed)) of 98.42 and a Response (Suit2-07 cells; experiment ATRi, ATRi 100 nM, GEM 0 nM, in % (unit assumed)) of 98.94. The Response (Suit2-07 cells; experiment ATRi, ATRi 300 nM, GEM 0 nM, in % (unit assumed)) was 89.08, the Response (Suit2-07 cells; experiment ATRi, ATRi 1000 nM, GEM 0 nM, in % (unit assumed)) was 45.00 and the Response (Suit2-07 cells; experiment ATRi, ATRi 3000 nM, GEM 0 nM, in % (unit assumed)) was 16.95. It also gave a Response (Suit2-07 cells; experiment ATRi, ATRi 10000 nM, GEM 0 nM, in % (unit assumed)) of 8.62, a Curve bottom (Suit2-07 cells; experiment GEM+ATRi_dose1) of 1.01 and a Curve top (Suit2-07 cells; experiment GEM+ATRi_dose1) of 0.13. For the same compound, the Curve bottom (Suit2-07 cells; experiment GEM+ATRi_dose2) was 1.03, the Curve top (Suit2-07 cells; experiment GEM+ATRi_dose2) was 0.15 and the Curve bottom (Suit2-07 cells; experiment GEM+ATRi_dose3) was 0.95. For the same compound, the Curve top (Suit2-07 cells; experiment GEM+ATRi_dose3) was 0.13.
